Data reported in publication PMC7251097, “Aspartate/asparagine-β-hydroxylase: a high-throughput mass spectrometric assay for discovery of small molecule inhibitors” (Scientific Reports, 2020).
Counter-ions that a name gives are not always drawn. Like-named read-outs stand apart in the source and are kept apart here.

Molecular target: T1, His6-AspH315–758 (human aspartate/asparagine-β-hydroxylase, AspH) (Homo sapiens, UniProt Q12797)
T1 construct: N-Terminally His6-tagged human AspH315–758 (His6-AspH315–758) was produced in E. coli BL21 (DE3) cells; made in house; host or cells: E. coli BL21 (DE3), pET-28a(+) vector
T1 sequence (Q12797 315-758): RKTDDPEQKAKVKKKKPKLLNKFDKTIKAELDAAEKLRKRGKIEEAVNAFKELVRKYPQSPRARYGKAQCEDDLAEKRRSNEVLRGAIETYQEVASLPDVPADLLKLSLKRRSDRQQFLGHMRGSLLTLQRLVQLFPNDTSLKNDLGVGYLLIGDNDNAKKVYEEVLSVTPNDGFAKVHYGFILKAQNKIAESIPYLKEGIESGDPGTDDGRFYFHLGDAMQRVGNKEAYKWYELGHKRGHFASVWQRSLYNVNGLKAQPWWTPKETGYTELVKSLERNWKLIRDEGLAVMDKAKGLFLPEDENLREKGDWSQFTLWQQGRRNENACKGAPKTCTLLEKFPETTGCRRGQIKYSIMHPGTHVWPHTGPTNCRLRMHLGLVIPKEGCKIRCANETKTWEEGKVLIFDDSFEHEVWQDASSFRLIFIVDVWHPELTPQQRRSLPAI
Assay: SPE-MS AspH inhibition assay (LOPAC screen at fixed 20 μM and IC50 dose-response), hydroxylation of cyclic peptide hFX-CP101–119
Assay type: biochemical

[1] = LOPAC compound at fixed 20 uM, plate 1, normalised to DMSO and 2,4-PDCA controls
[2] = LOPAC compound at fixed 20 uM, substrate conversion, plate 1
[3] = LOPAC compound at 20uM, plate 2, conversion of substrate peptide
[4] = LOPAC Plate 4, compound at 20 uM, substrate conversion
[5] = plate 5 (Pfitzer), test compounds at fixed 20 μM
[6] = plate 5 (Pfitzer), test compounds at fixed 20 μM, mean conversion DMSO 32.88
[7] = LOPAC compound at 20uM, plate 2, normalised to DMSO and 2,4-PDCA controls
[8] = LOPAC Plate 4, compound at 20 uM

## C[N+](C)(C)CC(=O)O [Betaine hydrochloride]
[1]
  Plate 1 (% inhibition): -4.44%
[2]
  Plate 1 (% conversion): 37.36%

## C[C@H]1C[C@H]2[C@@H]3CCC4=CC(=O)C=C[C@]4(C)[C@@]3(F)[C@@H](O)C[C@]2(C)[C@@]1(O)C(=O)CO [Betamethasone]
[1]
  Plate 1 (% inhibition): -5.12%
[2]
  Plate 1 (% conversion): 37.59%

## CC(C)NCC(O)COc1ccc(CCOCC2CC2)cc1 (stereo not shown) [Betaxolol hydrochloride]
[1]
  Plate 1 (% inhibition): -3.28%
[2]
  Plate 1 (% conversion): 36.97%

## CC(C[N+](C)(C)C)OC(N)=O (stereo not shown) [Bethanechol chloride]
[1]
  Plate 1 (% inhibition): -8.85%
[2]
  Plate 1 (% conversion): 38.85%

## C=C(c1ccc(C(=O)O)cc1)c1cc2c(cc1C)C(C)(C)CCC2(C)C [Bexarotene]
[3]
  Plate 2 (% conversion): 33.95%
LOPAC compound at 20uM, plate 2, normalised to DMSO and 2,4-PDCA controls, read-out: Plate 2 (% inhibition)
  inhibition at 20 µM: 6%

## CC(O)(CS(=O)(=O)c1ccc(F)cc1)C(=O)Nc1ccc(C#N)c(C(F)(F)F)c1 (stereo not shown) [Bicalutamide (CDX)]
[4]
  % conversion: 24.70%

## OC(CCN1CCCCC1)(c1ccccc1)C1CC2C=CC1C2 (stereo not shown) [Biperiden hydrochloride]
[1]
  Plate 1 (% inhibition): -10.34%
[2]
  Plate 1 (% conversion): 39.34%

## O=C(/C=C/c1ccc(O)cc1)CC(=O)/C=C/c1ccc(O)cc1 [Bisdemethoxycurcumin, reference compound]
AspH activity, fixed compound concentration 20 μM, initial LOPAC screen, 0.5%v/v DMSO, read-out: Inhibition at 20 µM [%]
  inhibition at 20 µM: 99.7%

## COc1cc(Nc2c(C#N)cnc3cc(OCCCN4CCN(C)CC4)c(OC)cc23)c(Cl)cc1Cl [Bosutinib]
[1]
  Plate 1 (% inhibition): -79.17%
[2]
  Plate 1 (% conversion): 62.46%
[5]
  Plate 5 (% inhibition): -77.35%
[6]
  Plate 5 (% conversion): 62.64%

## Cc1c(-c2ccc(-c3ccccc3F)cc2)nc2ccc(F)cc2c1C(=O)[O-].[Na+] [Brequinar sodium salt hydrate]
[1]
  Plate 1 (% inhibition): 11.82%
[2]
  Plate 1 (% conversion): 31.90%

## CCN[C@H]1CN(CCCOC)S(=O)(=O)c2sc(S(N)(=O)=O)cc21 [Brinzolamide]
[4]
  % conversion: 38.63%
LOPAC Plate 4, compound at 20 uM, read-out: % inhibition
  inhibition at 20 µM: -6.32%

## C=CCc1ccccc1OCC(O)CNC1(C)CCC(C(C)(C)NC(=O)CBr)CC1 (stereo not shown) [Bromoacetyl alprenolol menthane]
  Plate 1 (% conversion): 65.73%
  Plate 1 (% inhibition): -88.92%

## C[N+](C)(C)CCOC(=O)CBr.[Br-] [Bromoacetylcholine bromide]
  Plate 1 (% conversion): 36.25%
  Plate 1 (% inhibition): -1.12%

## CCCC1O[C@@H]2C[C@H]3[C@@H]4CCC5=CC(=O)C=C[C@]5(C)[C@H]4[C@@H](O)C[C@]3(C)[C@]2(C(=O)CO)O1 (stereo partly shown) [Budesonide]
[1]
  Plate 1 (% inhibition): -13.14%
[2]
  Plate 1 (% conversion): 40.29%

## CCCCNc1cc(C(=O)O)cc(S(N)(=O)=O)c1Oc1ccccc1 [Bumetanide]
[1]
  Plate 1 (% inhibition): 3.08%
[2]
  Plate 1 (% conversion): 34.84%

## CC(NC(C)(C)C)C(=O)c1cccc(Cl)c1 (stereo not shown) [Bupropion hydrochloride]
  Plate 1 (% conversion): 38.01%
  Plate 1 (% inhibition): -6.38%

## O=C1CC2(CCCC2)CC(=O)N1CCCCN1CCN(c2ncccn2)CC1 [Buspirone hydrochloride]
  Plate 1 (% conversion): 40.40%
[1]
  Plate 1 (% inhibition): -13.49%

## NC(=O)c1cc(N2CC2)c([N+](=O)[O-])cc1[N+](=O)[O-] [CB 1954]
[1]
  Plate 1 (% inhibition): 4.86%
[2]
  Plate 1 (% conversion): 34.24%

## Clc1nccc2c1ccc1ccccc12 [CBIQ]
[1]
  Plate 1 (% inhibition): -13.62%
[2]
  Plate 1 (% conversion): 40.45%

## CS(=O)(=O)O.Cn1cc(C(F)(F)F)nc1-c1ccc(OCC(O)CNCCOc2ccc(O)c(C(N)=O)c2)cc1 (stereo not shown) [CGP 20712A methanesulfonate]
[3]
  Plate 2 (% conversion): 36.56%
[7]
  Plate 2 (% inhibition): -1.81%

## CC(C)(CO)Cc1cc(C(C)(C)C)c(O)c(C(C)(C)C)c1 [CGP-7930]
[1]
  Plate 1 (% inhibition): -11.33%
[2]
  Plate 1 (% conversion): 39.68%

## CC(C)(C=O)Cc1cc(C(C)(C)C)c(O)c(C(C)(C)C)c1 [CGP-13501]
[1]
  Plate 1 (% inhibition): 0.58%
[2]
  Plate 1 (% conversion): 35.68%

## CCn1cnc2c(Nc3cccc(Cl)c3)nc(N[C@@H]3CCCC[C@@H]3N)nc21.Cl [CGP-74514A hydrochloride]
  Plate 1 (% conversion): 10.02%
  Plate 1 (% inhibition): 76.98%

## COc1ccc(OCC2c3cc(OC)c(OC)cc3CCN2C(=O)c2cccc(Cl)c2)cc1 (stereo not shown) [CIQ]
[4]
  % conversion: 36.09%

## N#Cc1cc2nc([O-])c([O-])nc2cc1[N+](=O)[O-].[Na+].[Na+] [CNQX disodium]
[3]
  Plate 2 (% conversion): 39.74%
[7]
  Plate 2 (% inhibition): -11.30%

## CCc1cccc(N(C)C(N)=Nc2cccc3ccccc23)c1 [CNS-1102]
[1]
  Plate 1 (% inhibition): -9.21%
[2]
  Plate 1 (% conversion): 38.96%

## COc1ccc(/C=C/c2nc(NCCCN(C)C)c3ccccc3n2)cc1.Cl.Cl.O [CP-31398 dihydrochloride hydrate]
[4]
  % conversion: 42.00%

## COc1ccc(/C=C/c2nc(NCCCN(C)C)c3ccccc3n2)cc1 [CP-31398]
  Plate 5 (% conversion): 45.27%
  Plate 5 (% inhibition): -26.30%

## CN[C@@H]1CC[C@@H](c2ccc(Br)cc2)c2ccccc21.Cl [CP-53631]
  Plate 5 (% conversion): 37.76%
  Plate 5 (% inhibition): -4.23%

## CC[C@H]1OC(=O)[C@H](C)[C@@H](O[C@H]2C[C@@](C)(OC)[C@@H](O)[C@H](C)O2)[C@H](C)[C@@H](O[C@@H]2O[C@H](C)C[C@H](NC)[C@H]2O)[C@](C)(O)C[C@@H](C)CN(C)[C@H](C)[C@@H](O)[C@]1(C)O [CP-64434]
  Plate 5 (% conversion): 37.11%
  Plate 5 (% inhibition): -2.34%

## Nc1nc2ccc(Cl)cc2n2c(-c3ccccc3)nnc12 [CP-66713]
  Plate 3 (% conversion): 39.27%
  Plate 5 (% conversion): 29.84%
  Plate 5 (% inhibition): 19.04%

## CN(C)C(=O)[C@H](O)[C@H](Cc1ccccc1)NC(=O)c1cc2cc(Cl)ccc2[nH]1 [CP-91149]
  Plate 2 (% conversion): 37.12%
  Plate 5 (% conversion): 35.66%
  Plate 5 (% inhibition): 1.91%
20 µM
  Plate 2 (% inhibition): -3.47%

## Cl.Cl.O=c1ccc2[nH]cc(C3=CCNCC3)c2[nH]1 [CP-93129 dihydrochloride hydrate]
  % conversion: 37.25%
[8]
  % inhibition: -2.28%

## O=c1ccc2[nH]cc(C3=CCNCC3)c2[nH]1 [CP-93129]
  Plate 5 (% conversion): 38.32%
  Plate 5 (% inhibition): -5.90%

## COc1ccccc1CN[C@@H]1CCCN[C@@H]1c1ccccc1.Cl.Cl.O [CP-100263 dihydrochloride hydrate]
[8]
  % inhibition: -15.48%
[4]
  % conversion: 41.75%

## COc1ccccc1CN[C@H]1CCCN[C@H]1c1ccccc1 [CP-100263]
  Plate 5 (% conversion): 33.08%
  Plate 5 (% inhibition): 9.51%

## CC(C)(C)OC(=O)NC1[C@H]2CNC[C@@H]12 (stereo partly shown) [CP-101537]
  Plate 3 (% conversion): 33.25%
  Plate 5 (% conversion): 36.34%
  Plate 5 (% inhibition): -0.06%

## CN1CCC[C@@H]1Cc1c[nH]c2ccc(Nc3ncccc3[N+](=O)[O-])cc12 [CP-135807]
  % conversion: 37.42%
  Plate 5 (% conversion): 32.28%
  Plate 5 (% inhibition): 11.85%

## CCCCN(CC)c1nc(C)nc2c1c(C)cn2-c1c(C)cc(C)cc1C.Cl [CP-154526 hydrochloride]
LOPAC compound at 20uM, plate 3, conversion of substrate peptide
  Plate 3 (% conversion): 39.02%

## CCCCN(CC)c1nc(C)nc2c1c(C)cn2-c1c(C)cc(C)cc1C [CP-154526]
[5]
  Plate 5 (% inhibition): -9.05%
[6]
  Plate 5 (% conversion): 39.39%

## Fc1ccc2[nH]c(CN3CCN(c4ccccn4)CC3)cc2c1 [CP-226269]
  % conversion: 39.74%
  Plate 5 (% conversion): 37.75%
  Plate 5 (% inhibition): -4.22%

## O.O.O=C(Nc1ccc2c(c1)CCN(Cc1ncn[nH]1)C2)c1ccccc1-c1ccc(C(F)(F)F)cc1 [CP-346086 dihydrate]
[8]
  % inhibition: -27.35%
[4]
  % conversion: 45.80%

## O=C(Nc1ccc2c(c1)CCN(Cc1ncn[nH]1)C2)c1ccccc1-c1ccc(C(F)(F)F)cc1 [CP-346086]
  Plate 5 (% conversion): 46.02%
  Plate 5 (% inhibition): -28.53%

## COCCOc1cc2nc[nH]c(=O)c2cc1OCCOC [CP-380736]
  Plate 1 (% conversion): 40.54%
  Plate 1 (% inhibition): -13.90%
  Plate 5 (% conversion): 31.91%
  Plate 5 (% inhibition): 12.94%

## CC(C)(NS(=O)(=O)c1ccc(Oc2ccc(F)cc2)cc1)C(=O)NO [CP-471474]
  Plate 5 (% conversion): 38.13%
  Plate 5 (% inhibition): -5.33%

## CC(C)c1ccc(CC(=O)N2CCC[C@@H](c3cccc(OC(C)(C)C(=O)O)c3)C2)cc1 [CP-775146]
  Plate 5 (% conversion): 34.51%
  Plate 5 (% inhibition): 5.31%

## CN(CCC(Oc1ccc(C(=O)c2nccs2)cc1)c1ccc(Cl)cc1)CC(=O)O (stereo not shown) [CP-802079]
  Plate 5 (% conversion): 32.57%
  Plate 5 (% inhibition): 11.01%

## CC(C)c1c(-c2ccccc2)[nH]c2c(C#N)cnn2c1=O [CPI-455, reference compound]
50 nM His6-AspH315–758, 1.0 μM hFX-CP101–119, 3 μM 2OG, 2 μM Fe(II), 50 mM HEPES pH 7.5, 20 °C, mean ± SD, n = 2 (2,4-PDCA n = 10)
  IC50 [μM]: inactive
